Test results taken from patent US4239779A, “Use of phenylglyoxylic acids and derivatives thereof in the treatment of ischemic heart disease” (Pfizer Inc., priority 1979, dated 1980).

Columns and labels:
[1] = system: pyruvate dehydrogenase (PDH); test: Proportion of active pyruvate dehydrogenase (PDHa/PDHt) in hearts of fat-fed rats after dosing; type: in vivo; settings: rat heart
Protocol: (2) Rats fed on a high fat diet as in test (1) (a), are treated either with placebo or with the compound of formula (I), by subcutaneous or intravenous injection or by oral administration, and at various times after treatment the rat hearts are removed and homogenized, under conditions which minimize changes in the proportion of the pyruvate dehydrogenase enzyme which is present in the active form, as described by Whitehouse and Randle (Biochem. J. 1973, 134, 651). The total amount of the enzyme present (PDHt) and the amount which is present in the active form (PDHa) are assessed by a method similar to that described by Taylor et al (J. Biol. Chem. 1973, 248, 73). The fat-feeding process is found to depress the ratio PDHa/PDHt from a normal value of about 0.7 to a value in the range from 0.05 to 0.2.

anesthetized beagle dogs = test: Myocardial blood flow and metabolism in fasted, closed-chest, anesthetized, electrically paced beagle dogs; type: in vivo, dog; settings: 0.02 to 0.1 millimole/kg intravenously; in the presence and absence of isoprenaline
Protocol: The ability of compounds of formula (I) to reduce oxygen demand and affect the relative utilization of carbohydrate and lipid metabolites in the heart may be assessed by measuring the effect of the compounds on myocardial blood flow and metabolism in fasted, closed-chest, anesthetized beagle dogs, with cardiac catheterization to enable simultaneous sampling of coronary sinus and arterial blood to be carried out. Coronary sinus blood flow is measured by the hydrogen gas clearance technique described by Aukland et al (Circulation Res. 1964, 14, 164). The heart is paced electrically at 155 beats/min. and recordings of hemodynamic parameters (blood pressure, left ventricular pressure and the first derivative of the latter) are made continuously. Control measurements of coronary blood flow are made and samples of blood taken at 40 min. intervals, both in an untreated animal and in the same animal dosed with an infusion of isoprenaline ([…].), which both stimulates cardiac contraction and increases plasma free fatty acid levels. The compound of formula (I) is then administered intravenously and measurements are made and samples taken again, 40 minutes and 90 minutes later. The blood samples from the artery and coronary sinus are analyzed for oxyhemoglobin, pyruvate and free fatty acid (FFA) content, differences between those of the arterial and coronary sinus blood, when multiplied by coronary blood flow, being a measure of oxygen consumption, pyruvate uptake and FFA uptake by the myocardium respectively.

Row | SMILES | PDHa/PDHt ratio at 1.5 hours ([1]; dose 0.6 mM/kg subcutaneous, placebo ratio 0.12) | PDHa/PDHt ratio at 1.5 hours ([1]; dose 1.2 mM/kg subcutaneous, placebo ratios 0.11-0.24) | myocardial blood flow (anesthetized beagle dogs) | myocardial oxygen consumption (anesthetized beagle dogs) | myocardial pyruvate uptake (anesthetized beagle dogs) | period of increased myocardial pyruvate uptake after dosing (anesthetized beagle dogs)
1 | CSc1ccc(C(=O)C(=O)O)cc1 [SCH3, H, OH, p-(methylthio)phenylglyoxylic acid] | 0.24 | 0.47 | – | – | – | –
2 | O=C(O)C(=O)c1ccc(O)cc1 [OH, H, OH, p-hydroxyphenylglyoxylic acid] | – | – | increased | decreased | increases | at least 90 minutes
